# Assay results reported in patent US6156700A, “3-(1,2-Benzisothiazol- and isoxazol-5-yl)-2,4(1H,3H)-pyrimidinedione or thione and 3-(1,2-benzisothiazol- and isoxazol-5-yl)-4(3H)-pyrimidinone or thione herbicidal agents” (American Cyanmid Company, priority 1998, dated 2000).
# Key:
# GALAP [1] = test: Postemergence herbicidal evaluation; format: in vivo
# GLXMAW [2] = test: Postemergence herbicidal evaluation; format: in vivo
# ZEAMX [3] = test: Postemergence herbicidal evaluation; format: in vivo
# ABUTH [4] = test: Postemergence herbicidal evaluation; format: in vivo
# SETVI [5] = test: Postemergence herbicidal evaluation; format: in vivo
# CASOB [6] = test: Postemergence herbicidal evaluation; format: in vivo
# ORYSAT [7] = test: Postemergence herbicidal evaluation; format: in vivo, Oryza sativa
# CHEAL [8] = test: Postemergence herbicidal evaluation; format: in vivo
# ORYSAT [9] = test: Preemergence herbicidal evaluation; format: in vivo, Oryza sativa; set-up: scale not given here
# Protocol: (§1) The preemergence and postemergence herbicidal properties of certain compounds of the present invention are compared with certain compounds disclosed in U.S. Pat. Nos. 5,484,763 and 5,523,278. The evaluations are performed as described in Examples 185 and 186. Data in Tables V and VI are reported by the compound number given in Example 185 for the compounds of this invention or by comparative compound letter for the compounds disclosed in U.S. Pat. Nos. 5,484,763 and 5,523,278.
# AMBEL [10] = test: Postemergence herbicidal evaluation; format: in vivo
# IPOSS [11] = test: Postemergence herbicidal evaluation; format: in vivo
# CHEAL [12] = test: Preemergence herbicidal evaluation; format: in vivo; set-up: scale not given here
# Protocol: as §1
# AMBEL [13] = test: Preemergence herbicidal evaluation; format: in vivo; set-up: scale not given here
# Protocol: as §1
# ECHCG [14] = test: Preemergence herbicidal evaluation; format: in vivo; set-up: scale not given here
# Protocol: as §1
# ZEAMX [15] = test: Preemergence herbicidal evaluation; format: in vivo; set-up: scale not given here
# Protocol: as §1
# GLXMAW [16] = test: Preemergence herbicidal evaluation; format: in vivo; set-up: scale not given here
# Protocol: as §1
# ABUTH [17] = test: Preemergence herbicidal evaluation; format: in vivo; set-up: scale not given here
# Protocol: as §1
# CASOB [18] = test: Preemergence herbicidal evaluation; format: in vivo; set-up: scale not given here
# Protocol: as §1
# GALAP [19] = test: Preemergence herbicidal evaluation; format: in vivo; set-up: scale not given here
# Protocol: as §1
# IPOSS [20] = test: Preemergence herbicidal evaluation; format: in vivo; set-up: scale not given here
# Protocol: as §1
# SETVI [21] = test: Preemergence herbicidal evaluation; format: in vivo; set-up: scale not given here
# Protocol: as §1
# ECHCG [22] = test: Postemergence herbicidal evaluation; format: in vivo
structure (smiles),measurement,setting,value
O=C1C2=C(CCCC2)C(=O)N1c1ccc2sncc2c1 [C],herbicidal effect rating,GALAP [1]; 0.0157-0.0160 kg/ha,2.0
same,herbicidal effect rating,GALAP [1]; 0.0313-0.0320 kg/ha,3.0
same,herbicidal effect rating,GALAP [1]; 0.0625-0.0640 kg/ha,5.0
same,herbicidal effect rating,GALAP [1]; 0.1250 kg/ha,6.0
same,herbicidal effect rating,GALAP [1]; 0.2500 kg/ha,6.0
same,herbicidal effect rating,GALAP [1]; 0.5000 kg/ha,9.0
same,herbicidal effect rating,GLXMAW [2]; 0.0157-0.0160 kg/ha,1.0
same,herbicidal effect rating,GLXMAW [2]; 0.0313-0.0320 kg/ha,1.5
same,herbicidal effect rating,GLXMAW [2]; 0.0625-0.0640 kg/ha,3.0
same,herbicidal effect rating,GLXMAW [2]; 0.1250 kg/ha,2.0
same,herbicidal effect rating,GLXMAW [2]; 0.2500 kg/ha,2.5
same,herbicidal effect rating,GLXMAW [2]; 0.5000 kg/ha,4.5
same,herbicidal effect rating,ZEAMX [3]; 0.0157-0.0160 kg/ha,1.5
same,herbicidal effect rating,ZEAMX [3]; 0.0313-0.0320 kg/ha,2.0
same,herbicidal effect rating,ZEAMX [3]; 0.0625-0.0640 kg/ha,1.5
same,herbicidal effect rating,ZEAMX [3]; 0.1250 kg/ha,1.5
same,herbicidal effect rating,ZEAMX [3]; 0.2500 kg/ha,2.5
same,herbicidal effect rating,ZEAMX [3]; 0.5000 kg/ha,3.0
same,herbicidal effect rating,ABUTH [4]; 0.0157-0.0160 kg/ha,8.0
same,herbicidal effect rating,ABUTH [4]; 0.0313-0.0320 kg/ha,9.0
same,herbicidal effect rating,ABUTH [4]; 0.0625-0.0640 kg/ha,9.0
same,herbicidal effect rating,ABUTH [4]; 0.1250 kg/ha,9.0
same,herbicidal effect rating,ABUTH [4]; 0.2500 kg/ha,9.0
same,herbicidal effect rating,ABUTH [4]; 0.5000 kg/ha,9.0
same,herbicidal effect rating,SETVI [5]; 0.0157-0.0160 kg/ha,0.0
same,herbicidal effect rating,SETVI [5]; 0.0313-0.0320 kg/ha,0.0
same,herbicidal effect rating,SETVI [5]; 0.0625-0.0640 kg/ha,0.0
same,herbicidal effect rating,SETVI [5]; 0.1250 kg/ha,0.0
same,herbicidal effect rating,SETVI [5]; 0.2500 kg/ha,0.0
same,herbicidal effect rating,SETVI [5]; 0.5000 kg/ha,2.0
same,herbicidal effect rating,CASOB [6]; 0.0157-0.0160 kg/ha,3.0
same,herbicidal effect rating,CASOB [6]; 0.0313-0.0320 kg/ha,8.0
same,herbicidal effect rating,CASOB [6]; 0.0625-0.0640 kg/ha,7.0
same,herbicidal effect rating,CASOB [6]; 0.1250 kg/ha,7.0
same,herbicidal effect rating,CASOB [6]; 0.2500 kg/ha,7.0
same,herbicidal effect rating,CASOB [6]; 0.5000 kg/ha,9.0
same,herbicidal effect rating,ORYSAT [7]; 0.0157-0.0160 kg/ha,2.0
same,herbicidal effect rating,ORYSAT [7]; 0.0313-0.0320 kg/ha,2.0
same,herbicidal effect rating,ORYSAT [7]; 0.0625-0.0640 kg/ha,2.5
same,herbicidal effect rating,ORYSAT [7]; 0.1250 kg/ha,2.5
same,herbicidal effect rating,ORYSAT [7]; 0.2500 kg/ha,3.0
same,herbicidal effect rating,ORYSAT [7]; 0.5000 kg/ha,4.5
same,herbicidal effect rating,CHEAL [8]; 0.0157-0.0160 kg/ha,0.0
same,herbicidal effect rating,CHEAL [8]; 0.0313-0.0320 kg/ha,3.0
same,herbicidal effect rating,CHEAL [8]; 0.0625-0.0640 kg/ha,3.0
same,herbicidal effect rating,CHEAL [8]; 0.1250 kg/ha,3.0
same,herbicidal effect rating,CHEAL [8]; 0.2500 kg/ha,4.0
same,herbicidal effect rating,CHEAL [8]; 0.5000 kg/ha,5.0
same,herbicidal effect rating,ORYSAT [9]; 0.0313-0.0320 kg/ha,1.0
same,herbicidal effect rating,ORYSAT [9]; 0.0620-0.0630 kg/ha,2.0
same,herbicidal effect rating,ORYSAT [9]; 0.1250 kg/ha,2.0
same,herbicidal effect rating,ORYSAT [9]; 0.2500 kg/ha,4.0
same,herbicidal effect rating,ORYSAT [9]; 0.5000 kg/ha,4.0
same,herbicidal effect rating,AMBEL [10]; 0.0157-0.0160 kg/ha,6.0
same,herbicidal effect rating,AMBEL [10]; 0.0313-0.0320 kg/ha,6.0
same,herbicidal effect rating,AMBEL [10]; 0.0625-0.0640 kg/ha,7.0
same,herbicidal effect rating,AMBEL [10]; 0.1250 kg/ha,8.0
same,herbicidal effect rating,AMBEL [10]; 0.2500 kg/ha,7.0
same,herbicidal effect rating,AMBEL [10]; 0.5000 kg/ha,9.0
same,herbicidal effect rating,IPOSS [11]; 0.0157-0.0160 kg/ha,2.0
same,herbicidal effect rating,IPOSS [11]; 0.0313-0.0320 kg/ha,6.0
same,herbicidal effect rating,IPOSS [11]; 0.0625-0.0640 kg/ha,5.0
same,herbicidal effect rating,IPOSS [11]; 0.1250 kg/ha,7.0
same,herbicidal effect rating,IPOSS [11]; 0.2500 kg/ha,6.0
same,herbicidal effect rating,IPOSS [11]; 0.5000 kg/ha,7.0
same,herbicidal effect rating,CHEAL [12]; 0.0313-0.0320 kg/ha,3.0
same,herbicidal effect rating,CHEAL [12]; 0.0620-0.0630 kg/ha,4.0
same,herbicidal effect rating,CHEAL [12]; 0.1250 kg/ha,5.0
same,herbicidal effect rating,CHEAL [12]; 0.2500 kg/ha,3.0
same,herbicidal effect rating,CHEAL [12]; 0.5000 kg/ha,7.0
same,herbicidal effect rating,AMBEL [13]; 0.0313-0.0320 kg/ha,3.0
same,herbicidal effect rating,AMBEL [13]; 0.0620-0.0630 kg/ha,3.0
same,herbicidal effect rating,AMBEL [13]; 0.1250 kg/ha,2.0
same,herbicidal effect rating,AMBEL [13]; 0.2500 kg/ha,2.0
same,herbicidal effect rating,AMBEL [13]; 0.5000 kg/ha,6.0
same,herbicidal effect rating,ECHCG [14]; 0.0313-0.0320 kg/ha,0.0
same,herbicidal effect rating,ECHCG [14]; 0.0620-0.0630 kg/ha,0.0
same,herbicidal effect rating,ECHCG [14]; 0.1250 kg/ha,2.0
same,herbicidal effect rating,ECHCG [14]; 0.2500 kg/ha,4.0
same,herbicidal effect rating,ECHCG [14]; 0.5000 kg/ha,6.0
same,herbicidal effect rating,ZEAMX [15]; 0.0313-0.0320 kg/ha,0.0
same,herbicidal effect rating,ZEAMX [15]; 0.0620-0.0630 kg/ha,0.0
same,herbicidal effect rating,ZEAMX [15]; 0.1250 kg/ha,0.0
same,herbicidal effect rating,ZEAMX [15]; 0.2500 kg/ha,0.0
same,herbicidal effect rating,ZEAMX [15]; 0.5000 kg/ha,0.0
same,herbicidal effect rating,GLXMAW [16]; 0.0313-0.0320 kg/ha,0.0
same,herbicidal effect rating,GLXMAW [16]; 0.0620-0.0630 kg/ha,0.0
same,herbicidal effect rating,GLXMAW [16]; 0.1250 kg/ha,0.0
same,herbicidal effect rating,GLXMAW [16]; 0.2500 kg/ha,0.0
same,herbicidal effect rating,GLXMAW [16]; 0.5000 kg/ha,0.0
same,herbicidal effect rating,ABUTH [17]; 0.0313-0.0320 kg/ha,0.0
same,herbicidal effect rating,ABUTH [17]; 0.0620-0.0630 kg/ha,2.0
same,herbicidal effect rating,ABUTH [17]; 0.1250 kg/ha,4.0
same,herbicidal effect rating,ABUTH [17]; 0.2500 kg/ha,9.0
same,herbicidal effect rating,ABUTH [17]; 0.5000 kg/ha,9.0
same,herbicidal effect rating,CASOB [18]; 0.0313-0.0320 kg/ha,1.0
same,herbicidal effect rating,CASOB [18]; 0.0620-0.0630 kg/ha,0.0
same,herbicidal effect rating,CASOB [18]; 0.1250 kg/ha,0.0
same,herbicidal effect rating,CASOB [18]; 0.2500 kg/ha,0.0
same,herbicidal effect rating,CASOB [18]; 0.5000 kg/ha,5.5
same,herbicidal effect rating,GALAP [19]; 0.0620-0.0630 kg/ha,2.0
same,herbicidal effect rating,GALAP [19]; 0.1250 kg/ha,2.0
same,herbicidal effect rating,GALAP [19]; 0.2500 kg/ha,6.0
same,herbicidal effect rating,GALAP [19]; 0.5000 kg/ha,7.5
same,herbicidal effect rating,IPOSS [20]; 0.0313-0.0320 kg/ha,0.0
same,herbicidal effect rating,IPOSS [20]; 0.0620-0.0630 kg/ha,0.0
same,herbicidal effect rating,IPOSS [20]; 0.1250 kg/ha,0.0
same,herbicidal effect rating,IPOSS [20]; 0.2500 kg/ha,0.0
same,herbicidal effect rating,IPOSS [20]; 0.5000 kg/ha,2.0
same,herbicidal effect rating,SETVI [21]; 0.0313-0.0320 kg/ha,0.0
same,herbicidal effect rating,SETVI [21]; 0.0620-0.0630 kg/ha,0.0
same,herbicidal effect rating,SETVI [21]; 0.1250 kg/ha,2.0
same,herbicidal effect rating,SETVI [21]; 0.2500 kg/ha,4.0
same,herbicidal effect rating,SETVI [21]; 0.5000 kg/ha,5.0
same,herbicidal effect rating,ECHCG [22]; 0.0157-0.0160 kg/ha,0.0
same,herbicidal effect rating,ECHCG [22]; 0.0313-0.0320 kg/ha,0.0
same,herbicidal effect rating,ECHCG [22]; 0.0625-0.0640 kg/ha,0.0
same,herbicidal effect rating,ECHCG [22]; 0.1250 kg/ha,0.0
same,herbicidal effect rating,ECHCG [22]; 0.2500 kg/ha,0.0
same,herbicidal effect rating,ECHCG [22]; 0.5000 kg/ha,0.0
